Converted amounts (≈) assume the structure as drawn.
What was measured:
[1] = Inhibition of HIV NL4.3 integrase T124/T125 double mutant assessed as reduction in viral replication by luciferase reporter gene assay; parameters: species or system Human immunodeficiency virus
[2] = tested on: Human immunodeficiency virus; test: Ratio of EC50 for HIV1 NL4.3 integrase N124/T125 double mutant in presence of human serum to EC50 for HIV1 NL4.3 integrase N124/T125 double mutant in absence of human serum
[3] = Inhibition of HIV NL4.3 integrase N124/T125 double mutant assessed as reduction in viral replication by luciferase reporter gene assay; parameters: species or system Human immunodeficiency virus
[4] = Half life in human liver microsomes; assay type: ADME, Microsome
[5] = Clearance in monkey hepatocytes relative to hepatic blood flow; assay type: ADME, cell-based, Macaca mulatta, Hepatocyte; conditions: rhesus monkey, read-out: CLH
[6] = Solubility of the compound at pH 6.8; assay type: physicochemical; conditions: buffer
Cytochrome P450 1A2 = biological target: T1, Cytochrome P450 1A2 (Homo sapiens, UniProt P05177); test: Inhibition of CYP1A2 (unknown origin); assay type: ADME
T1 sequence (P05177 whole entry): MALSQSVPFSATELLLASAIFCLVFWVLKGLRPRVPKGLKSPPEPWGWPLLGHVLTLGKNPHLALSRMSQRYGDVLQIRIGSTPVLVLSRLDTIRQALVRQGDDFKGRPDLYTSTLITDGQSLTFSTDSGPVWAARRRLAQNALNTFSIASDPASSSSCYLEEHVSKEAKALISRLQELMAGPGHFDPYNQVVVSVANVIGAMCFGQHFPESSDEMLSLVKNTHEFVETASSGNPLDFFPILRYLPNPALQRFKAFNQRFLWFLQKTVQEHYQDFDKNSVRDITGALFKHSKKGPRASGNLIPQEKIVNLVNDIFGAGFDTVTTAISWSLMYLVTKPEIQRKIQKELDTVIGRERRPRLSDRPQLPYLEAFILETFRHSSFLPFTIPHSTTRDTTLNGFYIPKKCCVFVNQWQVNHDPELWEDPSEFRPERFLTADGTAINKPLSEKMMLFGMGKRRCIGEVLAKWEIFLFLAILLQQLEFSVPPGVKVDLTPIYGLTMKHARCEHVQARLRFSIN

[7] = Inhibition of HIV NL4.3 integrase N124/T125 double mutant infected in PBMC assessed as reduction in viral replication by p24 ELISA; conditions: Human immunodeficiency virus 1, NL4.3
Cytochrome P450 2C19 = Cytochrome P450 2C19 (Homo sapiens, UniProt P33261); test: Inhibition of CYP2C19 (unknown origin); assay type: ADME
Cytochrome P450 2C19, sequence (P33261 whole entry): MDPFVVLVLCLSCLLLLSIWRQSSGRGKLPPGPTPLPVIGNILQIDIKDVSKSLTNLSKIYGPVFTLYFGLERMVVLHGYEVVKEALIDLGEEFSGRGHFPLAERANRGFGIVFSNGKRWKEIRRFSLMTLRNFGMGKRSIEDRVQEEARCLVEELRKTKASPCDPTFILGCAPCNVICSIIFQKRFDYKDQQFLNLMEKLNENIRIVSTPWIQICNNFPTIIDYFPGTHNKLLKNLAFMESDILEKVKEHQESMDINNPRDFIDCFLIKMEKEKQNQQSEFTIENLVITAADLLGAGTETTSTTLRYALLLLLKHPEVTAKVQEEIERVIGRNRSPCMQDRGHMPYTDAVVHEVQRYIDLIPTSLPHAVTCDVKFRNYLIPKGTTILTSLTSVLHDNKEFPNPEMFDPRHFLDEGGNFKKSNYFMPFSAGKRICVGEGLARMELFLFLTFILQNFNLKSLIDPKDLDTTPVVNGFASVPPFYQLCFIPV

[8] = Apparent permeability in human Caco2 cells; assay type: ADME, cell-based; conditions: Caco-2
[9] = Half life in bile duct cannulated rat; assay type: ADME; conditions: in vivo
[10] = Clearance in iv dosed dog relative to hepatic blood flow; assay type: ADME, organism-based, Canis lupus familiaris; conditions: in vivo
Cytochrome P450 2C9 = Cytochrome P450 2C9 (Homo sapiens, UniProt P11712); test: Inhibition of CYP2C9 (unknown origin); assay type: ADME
Cytochrome P450 2C9, sequence (P11712 whole entry): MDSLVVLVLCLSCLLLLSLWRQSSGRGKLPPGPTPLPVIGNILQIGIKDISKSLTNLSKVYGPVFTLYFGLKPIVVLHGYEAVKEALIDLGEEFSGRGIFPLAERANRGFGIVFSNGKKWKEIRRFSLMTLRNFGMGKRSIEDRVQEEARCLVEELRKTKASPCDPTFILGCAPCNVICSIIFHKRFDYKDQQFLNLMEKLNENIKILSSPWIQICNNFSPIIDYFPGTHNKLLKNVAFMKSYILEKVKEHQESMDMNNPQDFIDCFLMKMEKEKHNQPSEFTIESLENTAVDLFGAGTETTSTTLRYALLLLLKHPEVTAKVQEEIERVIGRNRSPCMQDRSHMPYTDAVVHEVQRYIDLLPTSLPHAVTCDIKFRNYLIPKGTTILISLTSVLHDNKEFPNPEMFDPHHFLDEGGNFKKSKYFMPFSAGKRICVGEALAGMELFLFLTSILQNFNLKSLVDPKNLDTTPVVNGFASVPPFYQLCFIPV

[11] = Half life in rat; assay type: ADME; conditions: in vivo
[12] = Clearance in iv dosed monkey relative to hepatic blood flow; assay type: ADME, organism-based, Macaca mulatta; conditions: rhesus monkey, in vivo
[13] = Clearance in dog hepatocytes relative to hepatic blood flow; assay type: ADME, cell-based, Canis lupus familiaris, Hepatocyte; conditions: read-out: CLH
[14] = Total drug excretion in rat bile assessed as acyl glucuronide of parent compound at 3 hrs; assay type: ADME, tissue-based; conditions: in vivo
[15] = Inhibition of HIV NL4.3 integrase N124/A125 double mutant infected in PBMC assessed as reduction in viral replication by p24 ELISA; conditions: Human immunodeficiency virus 1, NL4.3
[16] = Inhibition of HIV NL4.3 integrase A124/T125 double mutant infected in PBMC assessed as reduction in viral replication by p24 ELISA; conditions: Human immunodeficiency virus 1, NL4.3
[17] = Clearance in iv dosed rat relative to hepatic blood flow; assay type: ADME, organism-based; conditions: in vivo
Cytochrome P450 2D6 = Cytochrome P450 2D6 (Homo sapiens, UniProt P10635); test: Inhibition of CYP2D6 (unknown origin); assay type: ADME
Cytochrome P450 2D6, sequence (P10635 whole entry): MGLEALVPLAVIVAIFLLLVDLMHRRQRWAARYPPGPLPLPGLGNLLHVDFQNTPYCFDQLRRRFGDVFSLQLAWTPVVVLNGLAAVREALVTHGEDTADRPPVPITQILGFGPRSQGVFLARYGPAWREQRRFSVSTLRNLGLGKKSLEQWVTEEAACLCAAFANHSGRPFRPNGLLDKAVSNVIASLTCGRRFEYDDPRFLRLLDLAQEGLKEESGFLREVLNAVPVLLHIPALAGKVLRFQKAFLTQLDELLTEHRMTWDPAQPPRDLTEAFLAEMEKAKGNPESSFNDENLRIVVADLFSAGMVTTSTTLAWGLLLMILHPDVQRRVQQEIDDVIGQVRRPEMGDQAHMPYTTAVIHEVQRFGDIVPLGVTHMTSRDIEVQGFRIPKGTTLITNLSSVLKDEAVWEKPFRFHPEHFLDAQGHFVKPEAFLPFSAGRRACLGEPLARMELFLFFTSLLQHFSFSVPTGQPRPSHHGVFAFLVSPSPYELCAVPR

[18] = Volume of distribution at steady state in rat; assay type: ADME; conditions: in vivo, read-out: Vdss
[19] = Inhibition of HIV NL4.3 integrase T124/T125 double mutant infected in PBMC assessed as reduction in viral replication by p24 ELISA; conditions: Human immunodeficiency virus 1, NL4.3
[20] = Clearance in human hepatocytes relative to hepatic blood flow; assay type: ADME, cell-based, Hepatocyte; conditions: read-out: CLH
[21] = Inhibition of HIV NL4.3 integrase A124/A125 double mutant infected in PBMC assessed as reduction in viral replication by p24 ELISA; conditions: Human immunodeficiency virus 1, NL4.3
[22] = Inhibition of HIV NL4.3 integrase T124/A125 double mutant infected in PBMC assessed as reduction in viral replication by p24 ELISA; conditions: Human immunodeficiency virus 1, NL4.3
[23] = Clearance in rat hepatocytes relative to hepatic blood flow; assay type: ADME, cell-based, Hepatocyte; conditions: read-out: CLH
Cytochrome P450 3A4 = Cytochrome P450 3A4 (Homo sapiens, UniProt P08684); test: Inhibition of CYP3A4 (unknown origin); assay type: ADME
Cytochrome P450 3A4, sequence (P08684 whole entry): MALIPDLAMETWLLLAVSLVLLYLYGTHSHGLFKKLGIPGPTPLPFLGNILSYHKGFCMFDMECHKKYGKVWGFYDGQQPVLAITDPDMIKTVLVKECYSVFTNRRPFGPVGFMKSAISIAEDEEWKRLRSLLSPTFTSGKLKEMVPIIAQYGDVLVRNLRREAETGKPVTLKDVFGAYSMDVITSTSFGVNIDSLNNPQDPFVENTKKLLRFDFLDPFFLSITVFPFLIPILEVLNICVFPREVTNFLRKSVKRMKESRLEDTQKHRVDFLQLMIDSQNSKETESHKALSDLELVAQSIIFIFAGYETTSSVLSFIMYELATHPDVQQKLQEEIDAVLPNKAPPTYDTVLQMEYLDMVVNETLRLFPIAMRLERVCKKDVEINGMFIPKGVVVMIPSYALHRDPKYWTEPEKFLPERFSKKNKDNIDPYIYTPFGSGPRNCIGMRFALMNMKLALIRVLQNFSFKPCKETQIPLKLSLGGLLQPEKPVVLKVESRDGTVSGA

[24] = Clearance in rat relative to hepatic blood flow; assay type: ADME; conditions: in vivo

SMILES: Cc1nc(C(=O)NC2CCN(C)CC2)c(C)c(-c2ccc(Cl)cc2)c1[C@H](OC(C)(C)C)C(=O)O
- EC50 [1]: 2200 nM

SMILES: Cc1nc(NC(=O)c2ccccc2OC(F)(F)F)c(C)c(-c2ccc3c(c2)N(C)CCO3)c1[C@H](OC(C)(C)C)C(=O)O
- Ratio EC50 [2]: 3.4
- EC50 [3]: 220 nM
- EC50 [1]: 7.4 nM
- half-life [4]: > 5 h

SMILES: Cc1nc(C(=O)N[C@H]2CC[C@H](C)CC2)c(C)c(-c2ccc3c4c(cccc24)CCO3)c1[C@H](OC(C)(C)C)C(=O)O
- Ratio EC50 [2]: 2.9
- EC50 [3]: > 2500 nM
- EC50 [1]: 16 nM
- half-life [4]: > 5 h

SMILES: Cc1nc(C(=O)NCc2ccccc2)c(C)c(-c2ccc3c(c2)CCCO3)c1[C@H](OC(C)(C)C)C(=O)O
- Ratio EC50 [2]: 23
- EC50 [3]: 200 nM
- EC50 [1]: 14 nM

SMILES: Cc1nc(C(=O)N[C@H]2CC[C@H](C)CC2)c(C)c(-c2ccc3c(c2C)N(C)CCO3)c1[C@H](OC(C)(C)C)C(=O)O
- hepatic extraction ratio [5]: 0.31
- solubility [6]: 930 µg/mL (≈ 1730 µM)
- Ratio EC50 [2]: 2.9
- IC50 (Cytochrome P450 1A2): > 30000 nM
- EC50 [7]: 27 nM
- EC50 [3]: 170 nM
- IC50 (Cytochrome P450 2C19): > 30000 nM
- Papp [8]: 39.8 ×10⁻⁶ cm/s
- half-life [9]: 1.3 h
- CL [10]: 10%
- IC50 (Cytochrome P450 2C9): > 30000 nM
- half-life [11]: 1.3 h
- CL [12]: 30%
- hepatic extraction ratio [13]: 0.31
- Drug excretion [14]: 20%
- EC50 [15]: 42 nM
- EC50 [1]: 2.5 nM
- EC50 [16]: 0.6 nM
- CL [17]: 23%
- IC50 (Cytochrome P450 2D6): > 30000 nM
- Vd [18]: 1.4 L/kg
- EC50 [19]: 0.5 nM
- hepatic extraction ratio [20]: 0.17
- EC50 [21]: 0.9 nM
- EC50 [22]: 0.4 nM
- half-life [4]: > 5 h
- hepatic extraction ratio [23]: 0.07
- IC50 (Cytochrome P450 3A4): > 30000 nM

SMILES: Cc1nc(-c2cn(-c3ccccc3)nn2)c(C)c(-c2ccc3c(c2)CCCO3)c1[C@H](OC(C)(C)C)C(=O)O
- Ratio EC50 [2]: 17
- EC50 [3]: 310 nM
- EC50 [1]: 4.7 nM

SMILES: Cc1nc(NC(=O)c2ccccc2)c(C)c(-c2ccc(Cl)cc2)c1[C@H](OC(C)(C)C)C(=O)O
- EC50 [3]: 1100 nM
- EC50 [1]: 15 nM

SMILES: Cc1nc(C(=O)NC(C)(C)C2CC2)c(C)c(-c2ccc(Cl)cc2)c1[C@H](OC(C)(C)C)C(=O)O
- Ratio EC50 [2]: 1.5
- EC50 [3]: 560 nM
- EC50 [1]: 4.4 nM
- half-life [4]: 3.63 h

SMILES: Cc1nc(C(=O)N[C@H]2CC[C@H](O)CC2)c(C)c(-c2ccc(Cl)cc2)c1[C@H](OC(C)(C)C)C(=O)O
- EC50 [1]: 930 nM
- half-life [4]: > 5 h

SMILES: Cc1nc(C(=O)Nc2ccccc2)c(C)c(-c2ccc(Cl)cc2)c1[C@H](OC(C)(C)C)C(=O)O
- EC50 [3]: 670 nM
- EC50 [1]: 12 nM

SMILES: Cc1noc(C)c1-c1ccc(-c2nc(C)c([C@H](OC(C)(C)C)C(=O)O)c(-c3ccc4c(c3)CCCO4)c2C)cc1
- Ratio EC50 [2]: 7.8
- EC50 [3]: 390 nM
- EC50 [1]: 5.5 nM

SMILES: Cc1nc(C(=O)N[C@H]2CC[C@H](C)CC2)c(C)c(-c2ccc3c(c2C)NCCO3)c1[C@H](OC(C)(C)C)C(=O)O
- Ratio EC50 [2]: 3
- EC50 [3]: 130 nM
- EC50 [1]: 7.5 nM
- half-life [4]: 3.12 h

SMILES: Cc1nc(C(=O)N[C@H]2CC[C@H](C)CC2)c(C)c(-c2ccc(Cl)cc2)c1[C@H](OC(C)(C)C)C(=O)O
- Ratio EC50 [2]: 3.7
- EC50 [3]: 570 nM
- EC50 [1]: 7.3 nM
- half-life [4]: 3.07 h

SMILES: Cc1nc(-c2nc3cccc(C)c3n2C)c(C)c(-c2ccc(Cl)cc2)c1[C@H](OC(C)(C)C)C(=O)O
- Ratio EC50 [2]: 3.2
- EC50 [1]: 3 nM
- half-life [4]: 2 h

SMILES: Cc1nc(-c2nc3ccc(F)cc3n2C)c(C)c(-c2ccc3c(c2C)N(C)CCO3)c1[C@H](OC(C)(C)C)C(=O)O
- Ratio EC50 [2]: 1.4
- EC50 [3]: 120 nM
- EC50 [1]: 3 nM
- half-life [4]: 1.58 h

SMILES: Cc1nc(C(=O)N[C@H]2CC[C@H](C)CC2)c(C)c(-c2ccc3c(c2)NCCO3)c1[C@H](OC(C)(C)C)C(=O)O
- Ratio EC50 [2]: 2.1
- EC50 [3]: 280 nM
- EC50 [1]: 27 nM
- half-life [4]: > 5 h

SMILES: Cc1ccc2nc(-c3nc(C)c([C@H](OC(C)(C)C)C(=O)O)c(-c4ccc5c(c4C)N(C)CCO5)c3C)n(C)c2c1
- Ratio EC50 [2]: 3.9
- EC50 [3]: 91 nM
- EC50 [1]: 3 nM
- half-life [4]: 1.58 h

SMILES: Cc1nc(C(=O)N[C@H]2CC[C@H](C)CC2)c(C)c(-c2ccc3c(c2)CCCO3)c1[C@H](OC(C)(C)C)C(=O)O
- Ratio EC50 [2]: 4.1
- EC50 [3]: 220 nM
- EC50 [1]: 4.2 nM
- half-life [4]: 0.817 h

SMILES: Cc1nc(NC(=O)c2ccccc2OC(F)(F)F)c(C)c(-c2ccc3c(c2C)N(C)CCO3)c1[C@H](OC(C)(C)C)C(=O)O
- Ratio EC50 [2]: 2.6
- EC50 [1]: 4.7 nM
- half-life [4]: > 5 h

SMILES: Cc1nc2ccccc2c(-c2ccc3c4c(ccnc24)CCO3)c1[C@H](OC(C)(C)C)C(=O)O [BI-224436]
- CL [24]: 0.7%
- EC50 [3]: 30 nM
- EC50 [1]: 19 nM

SMILES: Cc1nc(-c2nc3ccccc3n2C)c(C)c(-c2ccc3c(c2C)N(C)CCO3)c1[C@H](OC(C)(C)C)C(=O)O
- solubility [6]: > 1000 µg/mL
- Ratio EC50 [2]: 4.9
- EC50 [3]: 59 nM
- Papp [8]: 10.6 ×10⁻⁶ cm/s
- Drug excretion [14]: 70%
- EC50 [1]: 3.3 nM
- CL [17]: 24%
- Vd [18]: 1.6 L/kg
- hepatic extraction ratio [20]: 0.24
- half-life [4]: 3.25 h
- hepatic extraction ratio [23]: 0.19

SMILES: Cc1nc(C(=O)N[C@H]2CC[C@H](C)CC2)c(C)c(-c2ccc3c(c2)N(C)CCO3)c1[C@H](OC(C)(C)C)C(=O)O
- Ratio EC50 [2]: 4.1
- EC50 [3]: 600 nM
- EC50 [1]: 6.8 nM
- half-life [4]: > 5 h

SMILES: Cc1cccc(NC(=O)c2nc(C)c([C@H](OC(C)(C)C)C(=O)O)c(-c3ccc(Cl)cc3)c2C)c1
- EC50 [1]: 3.7 nM
- half-life [4]: > 5 h

SMILES: Cc1noc(C)c1-c1ccc(-c2nc(C)c([C@H](OC(C)(C)C)C(=O)O)c(-c3ccc(Cl)cc3)c2C)cc1
- CL [24]: 0.6%
- EC50 [3]: 810 nM
- EC50 [1]: 7.7 nM

SMILES: Cc1ccc2[nH]c(-c3nc(C)c([C@H](OC(C)(C)C)C(=O)O)c(-c4ccc(Cl)cc4)c3C)nc2c1
- Ratio EC50 [2]: 13
- EC50 [1]: 1.1 nM
- half-life [4]: 2.77 h

From ChEMBL document CHEMBL4428082, “Aligning Potency and Pharmacokinetic Properties for Pyridine-Based NCINIs” (ACS Med Chem Lett, 2016)
